The NIST ThermoML archive (doi:10.1021/je101178u)
Where “and” joins values, the source holds several entries; their conditions need not be identical. Equal entries are not always repeated. Numbers after ± are expanded uncertainties.

Settings: Fluid (supercritical or subcritical phases); for mass density: Buoyancy - hydrostatic balance with magnetic suspension - one sinker; for viscosity: vibrating wire

CCC [propane]
Settings | mass density, 373.15 K | mass density, 423.15 K | viscosity, 373.15 K | viscosity, 423.15 K
79.37 kPa | – | 0.99883 ± 0.003 kg/m3 | – | 0.01136 ± 6.8e-05 mPa·s
158.25 kPa | – | 1.9998 ± 0.0048 kg/m3 | – | 0.01137 ± 6.8e-05 mPa·s
313.56 kPa | – | 3.9954 ± 0.0087 kg/m3 | – | 0.0114 ± 6.9e-05 mPa·s
466.92 kPa | – | 5.9988 ± 0.013 kg/m3 | – | 0.01142 ± 6.9e-05 mPa·s
467.03 kPa | – | 6.0003 ± 0.013 kg/m3 | – | 0.01143 ± 6.9e-05 mPa·s
611.2 kPa | – | 7.9148 ± 0.017 kg/m3 | – | 0.01145 ± 6.9e-05 mPa·s
611.47 kPa | – | 7.9184 ± 0.017 kg/m3 | – | 0.01145 ± 6.9e-05 mPa·s
763.44 kPa | – | 9.9704 ± 0.021 kg/m3 | – | 0.01148 ± 6.9e-05 mPa·s
763.61 kPa | – | 9.9726 ± 0.021 kg/m3 | – | 0.01148 ± 6.9e-05 mPa·s
920.8 kPa | – | 12.133 ± 0.026 kg/m3 | – | 0.01151 ± 6.9e-05 mPa·s and 0.01152 ± 6.9e-05 mPa·s
1060.2 kPa | – | 14.082 ± 0.03 kg/m3 | – | 0.01155 ± 7e-05 mPa·s
1061.3 kPa | – | 14.098 ± 0.03 kg/m3 | – | 0.01155 ± 7e-05 mPa·s
1192.7 kPa | – | 15.966 ± 0.034 kg/m3 | – | 0.01158 ± 7e-05 mPa·s
1193.5 kPa | – | 15.977 ± 0.034 kg/m3 | – | 0.01158 ± 7e-05 mPa·s
1334.7 kPa | – | 18.018 ± 0.038 kg/m3 | – | 0.01162 ± 7e-05 mPa·s
1335.7 kPa | – | 18.032 ± 0.038 kg/m3 | – | 0.01162 ± 7e-05 mPa·s
1454.8 kPa | – | 19.782 ± 0.042 kg/m3 and 19.781 ± 0.042 kg/m3 | – | 0.01166 ± 7e-05 mPa·s
2110 kPa | – | 29.905 ± 0.064 kg/m3 | – | 0.01189 ± 7.2e-05 mPa·s
2110.7 kPa | – | 29.916 ± 0.064 kg/m3 | – | 0.01189 ± 7.2e-05 mPa·s
2704.3 kPa | – | 39.922 ± 0.087 kg/m3 | – | 0.01217 ± 7.3e-05 mPa·s
2704.8 kPa | – | 39.931 ± 0.087 kg/m3 | – | 0.01217 ± 7.3e-05 mPa·s
3242.6 kPa | – | 49.821 ± 0.11 kg/m3 | – | 0.01248 ± 7.5e-05 mPa·s
3243.3 kPa | – | 49.834 ± 0.11 kg/m3 | – | 0.01248 ± 7.5e-05 mPa·s
3747.9 kPa | – | 59.965 ± 0.14 kg/m3 | – | 0.01283 ± 7.7e-05 mPa·s
3749.2 kPa | – | 59.991 ± 0.14 kg/m3 | – | 0.01284 ± 7.7e-05 mPa·s
4207.4 kPa | – | 70.041 ± 0.17 kg/m3 | – | 0.01323 ± 8e-05 mPa·s
4207.9 kPa | – | 70.052 ± 0.17 kg/m3 | – | 0.01323 ± 8e-05 mPa·s
4515.1 kPa | 229.821 ± 0.84 kg/m3 | – | 0.02377 ± 0.00017 mPa·s | –
4530.1 kPa | 241.836 ± 0.87 kg/m3 | – | 0.02518 ± 0.00018 mPa·s | –
4530.2 kPa | 241.88 ± 0.87 kg/m3 | – | 0.02519 ± 0.00018 mPa·s | –
4556 kPa | 256.611 ± 0.91 kg/m3 | – | 0.02701 ± 0.00019 mPa·s | –
4556.1 kPa | 256.634 ± 0.91 kg/m3 | – | 0.027 ± 0.00019 mPa·s | –
4576.2 kPa | 264.588 ± 0.93 kg/m3 | – | 0.02805 ± 0.0002 mPa·s | –
4576.3 kPa | 264.609 ± 0.93 kg/m3 | – | 0.02806 ± 0.0002 mPa·s | –
4606.1 kPa | 273.294 ± 0.96 kg/m3 and 273.287 ± 0.96 kg/m3 | – | 0.02925 ± 0.00021 mPa·s and 0.02926 ± 0.00021 mPa·s | –
4616.7 kPa | – | 79.819 ± 0.3 kg/m3 | – | 0.01365 ± 0.0001 mPa·s
4617.3 kPa | – | 79.834 ± 0.3 kg/m3 | – | 0.01365 ± 0.0001 mPa·s
4657.2 kPa | 283.68 ± 0.98 kg/m3 | – | 0.03078 ± 0.00022 mPa·s | –
4657.5 kPa | 283.727 ± 0.98 kg/m3 | – | 0.03078 ± 0.00022 mPa·s | –
4809.3 kPa | 301.877 ± 0.71 kg/m3 | – | 0.03369 ± 0.00022 mPa·s | –
4809.5 kPa | 301.894 ± 0.71 kg/m3 | – | 0.03367 ± 0.00022 mPa·s | –
5007.5 kPa | – | 89.97 ± 0.35 kg/m3 | – | 0.01412 ± 0.00013 mPa·s
5008.6 kPa | – | 90.002 ± 0.35 kg/m3 | – | 0.01412 ± 0.00013 mPa·s
5105.6 kPa | 320.889 ± 0.71 kg/m3 | – | 0.03705 ± 0.00024 mPa·s | –
5105.8 kPa | 320.902 ± 0.71 kg/m3 | – | 0.03706 ± 0.00024 mPa·s | –
5358.6 kPa | – | 99.87 ± 0.37 kg/m3 | – | 0.01462 ± 0.00013 mPa·s
5360.2 kPa | – | 99.917 ± 0.37 kg/m3 | – | 0.01462 ± 0.00013 mPa·s
5614.7 kPa | 339.536 ± 0.74 kg/m3 | – | 0.04075 ± 0.00027 mPa·s | –
5616.4 kPa | 339.584 ± 0.74 kg/m3 | – | 0.04077 ± 0.00027 mPa·s | –
5652.1 kPa | 340.592 ± 0.74 kg/m3 | – | 0.04096 ± 0.00027 mPa·s | –
5664.6 kPa | 340.939 ± 0.74 kg/m3 | – | 0.04104 ± 0.00027 mPa·s | –
5665.9 kPa | 340.974 ± 0.74 kg/m3 | – | 0.04105 ± 0.00027 mPa·s | –
5989.5 kPa | – | 119.759 ± 0.41 kg/m3 | – | 0.01573 ± 0.00014 mPa·s
5989.8 kPa | – | 119.769 ± 0.41 kg/m3 | – | 0.01573 ± 0.00014 mPa·s
6545.1 kPa | – | 139.717 ± 0.45 kg/m3 | – | 0.017 ± 0.00015 mPa·s
6545.3 kPa | – | 139.725 ± 0.45 kg/m3 | – | 0.017 ± 0.00015 mPa·s
6602.8 kPa | 360.84 ± 0.77 kg/m3 | – | 0.04555 ± 0.0003 mPa·s | –
6603.5 kPa | 360.852 ± 0.77 kg/m3 | – | 0.04553 ± 0.0003 mPa·s | –
7033 kPa | – | 159.017 ± 0.49 kg/m3 | – | 0.01838 ± 0.00016 mPa·s
7033.7 kPa | – | 159.048 ± 0.49 kg/m3 | – | 0.01838 ± 0.00016 mPa·s
7520.1 kPa | – | 179.397 ± 0.52 kg/m3 | – | 0.02002 ± 0.00017 mPa·s
7520.8 kPa | – | 179.425 ± 0.52 kg/m3 | – | 0.02002 ± 0.00017 mPa·s
7992.2 kPa | – | 199.277 ± 0.56 kg/m3 | – | 0.02182 ± 0.00018 mPa·s
7992.6 kPa | – | 199.294 ± 0.56 kg/m3 | – | 0.02182 ± 0.00018 mPa·s
8140.1 kPa | 381.197 ± 0.79 kg/m3 | – | 0.05077 ± 0.00033 mPa·s | –
8140.4 kPa | 381.2 ± 0.79 kg/m3 | – | 0.05076 ± 0.00033 mPa·s | –
8516 kPa | – | 220.253 ± 0.59 kg/m3 | – | 0.02395 ± 0.00019 mPa·s
8516.4 kPa | – | 220.267 ± 0.59 kg/m3 | – | 0.02394 ± 0.00019 mPa·s
9079.6 kPa | – | 240.483 ± 0.61 kg/m3 | – | 0.02624 ± 0.0002 mPa·s
9079.9 kPa | – | 240.492 ± 0.61 kg/m3 | – | 0.02623 ± 0.0002 mPa·s
9738.4 kPa | – | 260.609 ± 0.61 kg/m3 | – | 0.02877 ± 0.0002 mPa·s
9738.5 kPa | – | 260.612 ± 0.61 kg/m3 | – | 0.02878 ± 0.0002 mPa·s
10482 kPa | 401.46 ± 0.82 kg/m3 | – | 0.05673 ± 0.00036 mPa·s | –
10483 kPa | 401.469 ± 0.82 kg/m3 | – | 0.05674 ± 0.00036 mPa·s | –
10543 kPa | – | 280.635 ± 0.64 kg/m3 | – | 0.03161 ± 0.00022 mPa·s
10544 kPa | – | 280.644 ± 0.64 kg/m3 | – | 0.0316 ± 0.00022 mPa·s
11566 kPa | – | 300.645 ± 0.66 kg/m3 and 300.654 ± 0.66 kg/m3 | – | 0.03477 ± 0.00023 mPa·s
12882 kPa | – | 320.474 ± 0.69 kg/m3 | – | 0.03827 ± 0.00025 mPa·s
12884 kPa | – | 320.488 ± 0.69 kg/m3 | – | 0.03828 ± 0.00025 mPa·s
13841 kPa | 421.334 ± 0.85 kg/m3 and 421.333 ± 0.85 kg/m3 | – | 0.06347 ± 0.00039 mPa·s and 0.06343 ± 0.00039 mPa·s | –
14693 kPa | – | 341.059 ± 0.72 kg/m3 | – | 0.04235 ± 0.00027 mPa·s and 0.04234 ± 0.00027 mPa·s
17064 kPa | – | 361.23 ± 0.75 kg/m3 | – | 0.04694 ± 0.0003 mPa·s
17065 kPa | – | 361.234 ± 0.75 kg/m3 | – | 0.04691 ± 0.0003 mPa·s
18565 kPa | 441.166 ± 0.89 kg/m3 | – | 0.07127 ± 0.00044 mPa·s | –
18567 kPa | 441.173 ± 0.89 kg/m3 | – | 0.07127 ± 0.00044 mPa·s | –
20192 kPa | – | 381.227 ± 0.79 kg/m3 | – | 0.05209 ± 0.00033 mPa·s
20193 kPa | – | 381.229 ± 0.79 kg/m3 | – | 0.05209 ± 0.00033 mPa·s
24333 kPa | – | 401.231 ± 0.83 kg/m3 | – | 0.05798 ± 0.00036 mPa·s
24334 kPa | – | 401.235 ± 0.83 kg/m3 | – | 0.05795 ± 0.00036 mPa·s
25008 kPa | 460.907 ± 0.94 kg/m3 | – | 0.08006 ± 0.00049 mPa·s and 0.08024 ± 0.00049 mPa·s | –
25010 kPa | 460.912 ± 0.94 kg/m3 | – | 0.08022 ± 0.00049 mPa·s and 0.08013 ± 0.00049 mPa·s | –
28973 kPa | 470.682 ± 0.96 kg/m3 | – | 0.08526 ± 0.00052 mPa·s | –
28975 kPa | 470.686 ± 0.96 kg/m3 | – | 0.08531 ± 0.00052 mPa·s and 0.08536 ± 0.00052 mPa·s and 0.0853 ± 0.00052 mPa·s | –
29700 kPa | – | 421.002 ± 0.88 kg/m3 | – | 0.06464 ± 0.0004 mPa·s
29703 kPa | – | 421.011 ± 0.88 kg/m3 | – | 0.06466 ± 0.0004 mPa·s
29829 kPa | 472.623 ± 0.96 kg/m3 | – | 0.08626 ± 0.00053 mPa·s | –
29830 kPa | 472.624 ± 0.96 kg/m3 | – | 0.08626 ± 0.00053 mPa·s | –
